Here are results for six molecules from PubChem BioAssay (NCI).

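Compound exposure: 48 hours, 5 concentrations, 96-well plates. TGI denotes the concentration required for complete inhibition of growth.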 Where a SMILES comes first, the peptide text is derived from it. The star is where a group is joined. Boc = CC(C)(C)OC(=O)*

Common to all, as to assay: NCI anticancer screen, dose series, 48 h
Assay [1] deals with 786-0 renal.
The test system of assay [2] is HCT-15 colon.
Assay [3] relates to MDA-MB-435.
For assay [4], the system named is MOLT-4 leukemia.
Assay [5] has as its system OVCAR-3 ovarian.
Assay [6] relates to OVCAR-5 ovarian.
In assay [7] the test system is RXF 393 renal.
In assay [8] the test system is SK-OV-3 ovarian.
Assay [9] deals with SNB-75 CNS.
Assay [10] deals with SW-620 colon.

For the molecule `CCOC(=O)/C=C/C(=O)O/C=C/[N+](=O)[O-]`, the TGI in [1], in assay [2], in [3], in assay [4], in [5] and in assay [6] was > 100 µM in each case. For the same molecule, the TGI in assay [7], in [8], in assay [9] and in [10] was > 100 µM each time.
As to `Clc1ccc(CCNC2(c3cc4ccccc4s3)CCCCC2)cc1Cl`, the TGI was 36.8 µM in [1]; 37.7 µM in [2]; > 100 µM in assay [3]; 37.9 µM in assay [4]; 49.2 µM in assay [5]; 68.1 µM in assay [6]. Besides, the TGI in assay [7] is 36.7 µM; in assay [8] it was > 100 µM; in assay [9], 49.3 µM; in [10] it was > 100 µM.
With `CC(C)(C)NC1=NC(C(F)(F)F)(C(F)(F)F)NC(=O)N1`, the TGI in assay [1], in [2], in assay [3], in [4], in assay [5] and in assay [6] was > 100 µM throughout. Further, the TGI in assay [7], in assay [8], in assay [9] and in assay [10] was > 100 µM each time.
On to `CC(=O)OCC1OC(n2cnc3nc(Br)[nH]c(=O)c32)C(OC(C)=O)C1OC(C)=O` (stereo not given), for which the TGI in assay [1], in assay [2], in [3], in assay [4], in [5] and in assay [6] was > 100 µM throughout. The TGI in [7], in assay [8], in assay [9] and in assay [10] was > 100 µM each time.
With `COC(=O)C(Cc1ccccc1)NC(=O)C(CS)NC(=O)OC(C)(C)C` (stereo not drawn) (Boc-Cys-Phe-OMe; configuration not given here), the TGI is > 100 µM in assay [1]; > 100 µM in assay [2]; > 100 µM in assay [3]; 41.3 µM in [4]; > 100 µM in assay [5]; > 100 µM in [6]. In addition, the TGI in assay [7], in assay [8], in [9] and in assay [10] was > 100 µM throughout.
Regarding `CC(C)NC(=O)OCc1c(COC(=O)NC(C)C)c(-c2ccc[n+](COC(=O)Cc3ccccc3)c2)n2c1CCC2`, the TGI in assay [1] is 44.4 µM; in assay [2] it was > 100 µM; in [3], > 100 µM; in assay [4] it was > 100 µM; in assay [5], > 100 µM; in [6], > 100 µM. For the same molecule, the TGI in [7] was 67.3 µM; in assay [8], > 100 µM; in [9], > 100 µM; in assay [10], 50.5 µM.
